From paper PMC10489980, “Design of Potent and Salt-Insensitive Antimicrobial Branched Peptides” (Polymers, 2023)
Residues, ends and D or L forms follow the SMILES beside them.

How the values were obtained:
Assay type in all cases: cell-based
[1] = system: Enterococcus faecalis ATCC 29212; conditions: ATCC 29212, 3 h
Excerpt: (§1) Ten organisms obtained from the American Type Culture Collection (ATCC; Rockville, MD) were used for antimicrobial assays. Four Gram-negative bacteria included Escherichia coli ATCC 25922, Pseudomonas aeruginosa ATCC 27853, Klebsiella oxytoca ATCC 49131, and Proteus vulgaris ATCC 49132. The three Gram-positive bacteria were Staphylococcus aureus 29213, Micrococcus luteus ATCC 49,732, and Enterococcus faecalis ATCC 29212. The three fungi were Candida albicans ATCC 37092, Candida kefyr ATCC 37095, and Candida tropicalis ATCC 37097. The clinical isolates were obtained from Singapore General Hospital (SGH). They are Enterococcus faecium, Staphylococcus aureus, Klebsiella pneumoniae, Acinetobacter baumannii, Pseudomonas aeruginosa, and Enterobacter species. The strains were incubated in trypticase soy broth (TSB), which was prepared in double distilled water and autoclaved for sterilization. TSB was purchased from Becton-Dickinson (Cockeysville, MD, USA).
(§2) Antimicrobial Assays. A sensitive and reproducible two-stage radial diffusion antimicrobial assay of Lehrer et al. was employed. A 1–4 × 10^6 colony-forming unit/mL of the test organism was mixed with 10 mL of molten underlay gel solution and poured into Petri dishes to form a uniform layer. The gel solution consisted of 10 mM sodium phosphate buffer, 0.03% TSB, and 0.02% Tween-20, with the addition of 100 mM NaCl in the case of high-salt conditions. Upon gel solidification, gel wells were made by a 3-mm diameter template in an evenly spaced array. A 5 µL aliquot of a serial half-log dilution of test peptides at seven concentrations was added to each well after removal of gel plugs. The dishes were incubated at 37 °C for 3 h to allow peptide diffusion into the underlay gels. Gels were overlaid with 10 mL of 1% agarose in 6% TSB (wt/vol). After additional incubation at 37 °C for 16–24 h, the diameter of the clear zone surrounding the wells (colony-free) was measured under a microscope. Antimicrobial activities were expressed in units (0.1 mm = 1 unit), and the MICs (in µM) were determined from the x-intercepts of the dose-response curves. Experiments were performed in triplicates.

[2] = system: Proteus vulgaris ATCC 49132; conditions: ATCC 49132, 3 h
Excerpt: as §1, §2

[3] = system: Escherichia coli ATCC 25922; conditions: ATCC 25922, 3 h
Excerpt: as §1, §2

[4] = system: Candida albicans ATCC 37092; conditions: ATCC 37092, 3 h
Excerpt: as §1, §2

[5] = system: Candida tropicalis ATCC 37097; conditions: ATCC 37097, 3 h
Excerpt: as §1, §2

[6] = system: Klebsiella oxytoca ATCC 49131; conditions: ATCC 49131, 3 h
Excerpt: as §1, §2

[7] = system: Pseudomonas aeruginosa ATCC 27853; conditions: ATCC 27853, 3 h
Excerpt: as §1, §2

[8] = system: Micrococcus luteus ATCC 49,732; conditions: ATCC 49, 3 h
Excerpt: as §1, §2

[9] = system: Staphylococcus aureus 29213; conditions: 29213, 3 h
Excerpt: as §1, §2

[10] = system: Candida kefyr ATCC 37095; conditions: ATCC 37095, 3 h
Excerpt: as §1, §2

SMILES	MIC, E. faecalis, H-Salt [1] [µM]	MIC, E. faecalis, L-Salt [1] [µM]	MIC, P. vulgaris, H-Salt [2] [µM]	MIC, P. vulgaris, L-Salt [2] [µM]	MIC, E. coli, H-Salt [3] [µM]	MIC, E. coli, L-Salt [3] [µM]	MIC, C. albicans, H-Salt [4] [µM]	MIC, C. albicans, L-Salt [4] [µM]	MIC, C. tropicalis, H-Salt [5] [µM]	MIC, C. tropicalis, L-Salt [5] [µM]	MIC, K. oxytoca, H-Salt [6] [µM]	MIC, K. oxytoca, L-Salt [6] [µM]	MIC, P. aeruginosa, H-Salt [7] [µM]	MIC, P. aeruginosa, L-Salt [7] [µM]	MIC, M. luteus, H-Salt [8] [µM]	MIC, M. luteus, L-Salt [8] [µM]	MIC, S. aureus, H-Salt [9] [µM]	MIC, S. aureus, L-Salt [9] [µM]	MIC, C. kefyr, H-Salt [10] [µM]	MIC, C. kefyr, L-Salt [10] [µM]
CC(C)C[C@H](NC(=O)[C@@H](N)CCCNC(=N)N)C(=O)N[C@@H](Cc1ccc(O)cc1)C(=O)N[C@@H](CCCNC(=N)N)C(=O)NCCC[C@H](NC(=O)[C@H](CCCNC(=N)N)NC(=O)[C@H](Cc1ccc(O)cc1)NC(=O)[C@H](CC(C)C)NC(=O)[C@@H](N)CCCNC(=N)N)C(=O)NCCC[C@H](NC(=O)[C@H](CCCNC(=N)N)NC(=O)[C@H](Cc1ccc(O)cc1)NC(=O)[C@H](CC(C)C)NC(=O)[C@@H](N)CCCNC(=N)N)C(=O)NCCC[C@H](NC(=O)[C@H](CCCNC(=N)N)NC(=O)[C@H](Cc1ccc(O)cc1)NC(=O)[C@H](CC(C)C)NC(=O)[C@@H](N)CCCNC(=N)N)C(=O)NCCC[C@H](NC(=O)[C@H](CCCNC(=N)N)NC(=O)[C@H](Cc1ccc(O)cc1)NC(=O)[C@H](CC(C)C)NC(=O)[C@@H](N)CCCNC(=N)N)C(N)=O [iO5R] (HELM PEPTIDE1{R.L.Y.R.[Orn]}|PEPTIDE2{R.L.Y.R}|PEPTIDE3{R.L.Y.R.[Orn]}|PEPTIDE4{R.L.Y.R.[Orn]}|PEPTIDE5{R.L.Y.R.[Orn].[am]}$PEPTIDE1,PEPTIDE2,5:R3-4:R2|PEPTIDE1,PEPTIDE3,5:R2-5:R3|PEPTIDE3,PEPTIDE4,5:R2-5:R3|PEPTIDE4,PEPTIDE5,5:R2-5:R3$$$V2.0; N-terminus assumed)	> 500	2.2	7.8	8.2	9.2	0.7	0.8	0.6	0.6	0.9	6.2	1.2	3.8	1.0	2.0	0.8	6.4	1.9	0.5	0.6
CC(C)C[C@H](NC(=O)[C@@H](N)CCCNC(=N)N)C(=O)N[C@@H](Cc1ccc(O)cc1)C(=O)N[C@@H](CCCNC(=N)N)C(=O)NCCCC[C@H](NC(=O)[C@H](CCCNC(=N)N)NC(=O)[C@H](Cc1ccc(O)cc1)NC(=O)[C@H](CC(C)C)NC(=O)[C@@H](N)CCCNC(=N)N)C(=O)NCCCC[C@H](NC(=O)[C@H](CCCNC(=N)N)NC(=O)[C@H](Cc1ccc(O)cc1)NC(=O)[C@H](CC(C)C)NC(=O)[C@@H](N)CCCNC(=N)N)C(=O)NCCCC[C@H](NC(=O)[C@H](CCCNC(=N)N)NC(=O)[C@H](Cc1ccc(O)cc1)NC(=O)[C@H](CC(C)C)NC(=O)[C@@H](N)CCCNC(=N)N)C(=O)NCCCC[C@H](NC(=O)[C@H](CCCNC(=N)N)NC(=O)[C@H](Cc1ccc(O)cc1)NC(=O)[C@H](CC(C)C)NC(=O)[C@@H](N)CCCNC(=N)N)C(N)=O [iK5R] (HELM PEPTIDE1{R.L.Y.R.K}|PEPTIDE2{R.L.Y.R}|PEPTIDE3{R.L.Y.R.K}|PEPTIDE4{R.L.Y.R.K}|PEPTIDE5{R.L.Y.R.K.[am]}$PEPTIDE1,PEPTIDE2,5:R3-4:R2|PEPTIDE1,PEPTIDE3,5:R2-5:R3|PEPTIDE3,PEPTIDE4,5:R2-5:R3|PEPTIDE4,PEPTIDE5,5:R2-5:R3$$$V2.0; N-terminus assumed)	1.6	0.8	0.7	0.6	0.5	0.5	0.8	0.8	0.9	1.2	1.3	0.5	0.8	0.6	0.6	1.0	0.7	0.8	0.7	0.6
CC(C)C[C@H](NC(=O)[C@@H](N)CCCNC(=N)N)C(=O)N[C@@H](Cc1ccc(O)cc1)C(=O)N[C@@H](CCCNC(=N)N)C(=O)NCCCC[C@H](NC(=O)[C@H](CCCCNC(=O)[C@H](CCCNC(=N)N)NC(=O)[C@H](Cc1ccc(O)cc1)NC(=O)[C@H](CC(C)C)NC(=O)[C@@H](N)CCCNC(=N)N)NC(=O)[C@H](CCCCNC(=O)[C@H](CCCNC(=N)N)NC(=O)[C@H](Cc1ccc(O)cc1)NC(=O)[C@H](CC(C)C)NC(=O)[C@@H](N)CCCNC(=N)N)NC(=O)[C@H](CCCCNC(=O)[C@H](CCCNC(=N)N)NC(=O)[C@H](Cc1ccc(O)cc1)NC(=O)[C@H](CC(C)C)NC(=O)[C@@H](N)CCCNC(=N)N)NC(=O)[C@H](CCCNC(=N)N)NC(=O)[C@H](Cc1ccc(O)cc1)NC(=O)[C@H](CC(C)C)NC(=O)[C@@H](N)CCCNC(=N)N)C(N)=O [K5R] (HELM PEPTIDE1{R.L.Y.R.K.K.K.K.[am]}|PEPTIDE2{R.L.Y.R}|PEPTIDE3{R.L.Y.R}|PEPTIDE4{R.L.Y.R}|PEPTIDE5{R.L.Y.R}$PEPTIDE1,PEPTIDE2,8:R3-4:R2|PEPTIDE1,PEPTIDE3,7:R3-4:R2|PEPTIDE1,PEPTIDE4,6:R3-4:R2|PEPTIDE1,PEPTIDE5,5:R3-4:R2$$$V2.0; N-terminus assumed)	1.4	1.3	0.7	1.2	0.6	0.7	0.8	0.7	1.3	1.1	1.3	0.9	0.8	0.8	0.8	0.6	0.7	0.8	0.9	0.9
